Values after ≈ are worked out from the molar mass of the structure shown. Values joined by “and” are separate entries in the source; they are usually repeats but may differ in a detail not shown here. Identical values can stand only once. Active and inactive are the calls of the source. The calls are words filed in the database; no cut-off is given here.
Tests used:
[1] = Cytotoxicity against human Hep3B cells after 48 hrs by SRB assay; format: functional, cell-based, Hep 3B2
Hep 3B2 = experiment: Antitumor activity against human Hep3B cells xenografted in athymic nude mouse assessed as retardation of tumor growth at 10 mg/kg/day, ip for 4 consecutive days; format: functional, organism-based
Mus musculus [2] = experiment: Toxicity in human Hep3B cells xenografted athymic nude mouse assessed as induction of necrotic damage in kidney at 10 mg/kg/day, ip for 4 consecutive days; format: organism-based, Hep 3B2; parameters: route intraperitoneal; conditions: in vivo
Mus musculus [3] = experiment: Toxicity in human Hep3B cells xenografted athymic nude mouse assessed as induction of necrotic damage in liver at 10 mg/kg/day, ip for 4 consecutive days; format: organism-based, Hep 3B2; parameters: route intraperitoneal; conditions: in vivo
[4] = Homo sapiens, Hep3B, 48 h, read-out: IC50

SMILES: c1ccc(P(c2ccccc2)c2ccc3ccccc3c2-c2c(P(c3ccccc3)c3ccccc3)ccc3ccccc23)cc1
- IC50 [1, 4]: > 50 µg/mL

SMILES: COc1cc(P(=O)(c2ccccc2)c2ccccc2)c(-c2c(P(=O)(c3ccccc3)c3ccccc3)cc(OC)nc2OC)c(OC)n1
- IC50 [1, 4]: 47 µg/mL (≈ 69.5 µM)
- IC50 ([1]; hep 3b2): 43 µg/mL and 42 µg/mL

SMILES: COc1cc(P(c2ccccc2)c2ccccc2)c(-c2c(P(c3ccccc3)c3ccccc3)cc(OC)nc2OC)c(OC)n1
- IC50 [1, 4]: > 50 µg/mL

SMILES: O=P(c1ccccc1)(c1ccccc1)c1ccc2ccccc2c1-c1c(P(=O)(c2ccccc2)c2ccccc2)ccc2ccccc12
- IC50 [1, 4]: 14 µg/mL (≈ 21.4 µM)
- IC50 ([1]; hep 3b2): 12 µg/mL (≈ 18.3 µM)
- inhibition (Hep 3B2): Active
- Activity (Mus musculus [2]): Non-toxic
- Activity (Mus musculus [3]): Non-toxic

— ChEMBL document CHEMBL1275318, “The preparation of bi-functional organophosphine oxides as potential antitumor agents” (Eur J Med Chem, 2010)
